The source of these data is EP0430485A2, “Quinoline compound” (priority 1989, dated 1991).

Counter-ions that a name gives are not always drawn.

For the first test, the system named is scopolamine-induced amnesia. The format is in vivo, Wistar male rats. The note with it: rat, in vivo. The procedure:
In order to show effects of the compounds according to the present invention in more detail, a part of experimental examples relating to action against scopolamine-induced amnesia for step-through passive avoidance response in rats is shown below.
Wistar male rats of 7 to 8 weeks old were used to experiment after fasting for 12 hours. Rats were divided into groups with 8 rats per group and 1.5 mg/kg of scopolamine was intraperitoneally administered. After 30 minutes from the administration, rats were placed in a light compartment of a step-through type passive avoidance apparatus constituted by two compartments (25 × 10 × 25 cm of a light compartment and 30 × 30 × 30 cm of a dark compartment having a guillotine door and a floor grid for passing current) and a latent time by entering into a dark compartment was measured. The guillotine door was shut when a rat entered into the dark compartment and shock with 0.6 mA for 3 seconds was applied through the floor grid for acquisition trial. After acquisition trial, 10 mg/kg of each test compound was orally administered to rats and returned to their home cage. After 24 hours, rats were again placed in the light compartment at which the guillotine door was opened, a latent time by entering into the dark compartment was measured whereby presence or absence of improved effect of memory retention was judged.
With `Nc1c2c(nc3ccccc13)CCCC2` [Tacrine, 9-amino-1,2,3,4-tetrahydroacridine, reference compound], the “Latent time of memory retention” value worked out at 58 s.

The same test, now with this note: rats, scopolamine 1.5 mg/kg intraperitoneally; test compound 10 mg/kg p.o. after acquisition trial; latent time by entering the dark compartment measured after 24 hours; 8 rats per group.
In the case of “4-Amino-5-fluoro-1-isoamyl-2,3-dihydro-1H-pyrrolo[2,3-b]quinoline·trihydrate [Example 33]”, the “Latent time of memory retention” value is 151 s. Same read-out and setting: the figure for `CN1CCc2c1nc1ccccc1c2N` [Example 1, 4-amino-1-methyl-2,3-dihydro-1H-pyrrolo[2,3-b] quinoline] is 128 s. On to `CCCCCCCCCCCCN1CCCCc2c1nc1cccc(F)c1c2N` [Example 3, 6-amino-1-dodecyl-7-fluoro-2,3,4,5-tetrahydro-1H-azepino[2,3-b]quinoline], for which the “Latent time of memory retention” value worked out at 140 s.

Take `Nc1c2c(nc3ccccc13)N(Cc1ccccc1)CCCC2` [Example 10, 6-Amino-1-benzyl-2,3,4,5-tetrahydro-1H-azepino[2,3-b]-quinoline·hydrochloride]: the “Latent time of memory retention” value was determined as 188 s. On the same count and under the same terms, as for `Nc1c2c(nc3cccc(Cl)c13)N(Cc1ccccc1)CCCC2` [Example 11, 6-Amino-1-benzyl-7-chloro-2,3,4,5-tetrahydro-1H-azepino[2,3-b]quinoline·hydrochloride], the figure is 163 s; as for `Nc1c2c(nc3cccc(F)c13)NCCC2` [Example 20, 5-amino-6-fluoro-1,2,3,4-tetrahydrobenzo[d] [1,8]naphthylidine], 59 s. As to `Nc1c2c(nc3cccc(Cl)c13)NCCC2` [Example 21, 5-amino-6-chloro-1,2,3,4-tetrahydrobenzo[b] [1,8]naphthylidine], the “Latent time of memory retention” value amounted to 117 s. The same measure, in the same setting: as for `Nc1c2c(nc3ccccc13)NCC2` [Example 22, 4-Amino-2,3-dihydro-1H-pyrrolo[2,3-b]quinoline·hydrobromide], the figure is 78 s; as for `CC(=O)N1CCCc2c1nc1cccc(F)c1c2N` [Example 24, 1-acetyl-5-amino-6-fluoro-1,2,3,4-tetrahydrobenzo[b] [1,8]naphthylidine], 168 s; as for `Nc1c2c(nc3cccc(F)c13)N(C(=O)c1ccccc1)CCC2` [Example 26], 84 s. On the same count and under the same terms, the figure for `Nc1c2c(nc3cc(Cl)ccc13)NCCC2` [Example 31, 5-Amino-8-chloro-1,2,3,4-tetrahydrobenzo[b] [1,8]naphthylidine] is 72 s.
